Earlier results in US8883831B2, “Compositions and methods for minimizing or reversing agonist-induced desensitization” (PharmoRx Therapeutics, Inc., priority 2008, dated 2014).
pKd: −log10 of the molar value.

Tests used:
[1] = biological target: pentapeptide segment at the carboxy terminal of Filamin A (Homo sapiens, UniProt P21333); details: read-out: binding affinity
[2] = test system: chronic pain model in intact rodents; details: ultra-low dose, absence of exogenously administered opioid agonists

Sequence of pentapeptide segment at the carboxy terminal of Filamin A (P21333 whole entry): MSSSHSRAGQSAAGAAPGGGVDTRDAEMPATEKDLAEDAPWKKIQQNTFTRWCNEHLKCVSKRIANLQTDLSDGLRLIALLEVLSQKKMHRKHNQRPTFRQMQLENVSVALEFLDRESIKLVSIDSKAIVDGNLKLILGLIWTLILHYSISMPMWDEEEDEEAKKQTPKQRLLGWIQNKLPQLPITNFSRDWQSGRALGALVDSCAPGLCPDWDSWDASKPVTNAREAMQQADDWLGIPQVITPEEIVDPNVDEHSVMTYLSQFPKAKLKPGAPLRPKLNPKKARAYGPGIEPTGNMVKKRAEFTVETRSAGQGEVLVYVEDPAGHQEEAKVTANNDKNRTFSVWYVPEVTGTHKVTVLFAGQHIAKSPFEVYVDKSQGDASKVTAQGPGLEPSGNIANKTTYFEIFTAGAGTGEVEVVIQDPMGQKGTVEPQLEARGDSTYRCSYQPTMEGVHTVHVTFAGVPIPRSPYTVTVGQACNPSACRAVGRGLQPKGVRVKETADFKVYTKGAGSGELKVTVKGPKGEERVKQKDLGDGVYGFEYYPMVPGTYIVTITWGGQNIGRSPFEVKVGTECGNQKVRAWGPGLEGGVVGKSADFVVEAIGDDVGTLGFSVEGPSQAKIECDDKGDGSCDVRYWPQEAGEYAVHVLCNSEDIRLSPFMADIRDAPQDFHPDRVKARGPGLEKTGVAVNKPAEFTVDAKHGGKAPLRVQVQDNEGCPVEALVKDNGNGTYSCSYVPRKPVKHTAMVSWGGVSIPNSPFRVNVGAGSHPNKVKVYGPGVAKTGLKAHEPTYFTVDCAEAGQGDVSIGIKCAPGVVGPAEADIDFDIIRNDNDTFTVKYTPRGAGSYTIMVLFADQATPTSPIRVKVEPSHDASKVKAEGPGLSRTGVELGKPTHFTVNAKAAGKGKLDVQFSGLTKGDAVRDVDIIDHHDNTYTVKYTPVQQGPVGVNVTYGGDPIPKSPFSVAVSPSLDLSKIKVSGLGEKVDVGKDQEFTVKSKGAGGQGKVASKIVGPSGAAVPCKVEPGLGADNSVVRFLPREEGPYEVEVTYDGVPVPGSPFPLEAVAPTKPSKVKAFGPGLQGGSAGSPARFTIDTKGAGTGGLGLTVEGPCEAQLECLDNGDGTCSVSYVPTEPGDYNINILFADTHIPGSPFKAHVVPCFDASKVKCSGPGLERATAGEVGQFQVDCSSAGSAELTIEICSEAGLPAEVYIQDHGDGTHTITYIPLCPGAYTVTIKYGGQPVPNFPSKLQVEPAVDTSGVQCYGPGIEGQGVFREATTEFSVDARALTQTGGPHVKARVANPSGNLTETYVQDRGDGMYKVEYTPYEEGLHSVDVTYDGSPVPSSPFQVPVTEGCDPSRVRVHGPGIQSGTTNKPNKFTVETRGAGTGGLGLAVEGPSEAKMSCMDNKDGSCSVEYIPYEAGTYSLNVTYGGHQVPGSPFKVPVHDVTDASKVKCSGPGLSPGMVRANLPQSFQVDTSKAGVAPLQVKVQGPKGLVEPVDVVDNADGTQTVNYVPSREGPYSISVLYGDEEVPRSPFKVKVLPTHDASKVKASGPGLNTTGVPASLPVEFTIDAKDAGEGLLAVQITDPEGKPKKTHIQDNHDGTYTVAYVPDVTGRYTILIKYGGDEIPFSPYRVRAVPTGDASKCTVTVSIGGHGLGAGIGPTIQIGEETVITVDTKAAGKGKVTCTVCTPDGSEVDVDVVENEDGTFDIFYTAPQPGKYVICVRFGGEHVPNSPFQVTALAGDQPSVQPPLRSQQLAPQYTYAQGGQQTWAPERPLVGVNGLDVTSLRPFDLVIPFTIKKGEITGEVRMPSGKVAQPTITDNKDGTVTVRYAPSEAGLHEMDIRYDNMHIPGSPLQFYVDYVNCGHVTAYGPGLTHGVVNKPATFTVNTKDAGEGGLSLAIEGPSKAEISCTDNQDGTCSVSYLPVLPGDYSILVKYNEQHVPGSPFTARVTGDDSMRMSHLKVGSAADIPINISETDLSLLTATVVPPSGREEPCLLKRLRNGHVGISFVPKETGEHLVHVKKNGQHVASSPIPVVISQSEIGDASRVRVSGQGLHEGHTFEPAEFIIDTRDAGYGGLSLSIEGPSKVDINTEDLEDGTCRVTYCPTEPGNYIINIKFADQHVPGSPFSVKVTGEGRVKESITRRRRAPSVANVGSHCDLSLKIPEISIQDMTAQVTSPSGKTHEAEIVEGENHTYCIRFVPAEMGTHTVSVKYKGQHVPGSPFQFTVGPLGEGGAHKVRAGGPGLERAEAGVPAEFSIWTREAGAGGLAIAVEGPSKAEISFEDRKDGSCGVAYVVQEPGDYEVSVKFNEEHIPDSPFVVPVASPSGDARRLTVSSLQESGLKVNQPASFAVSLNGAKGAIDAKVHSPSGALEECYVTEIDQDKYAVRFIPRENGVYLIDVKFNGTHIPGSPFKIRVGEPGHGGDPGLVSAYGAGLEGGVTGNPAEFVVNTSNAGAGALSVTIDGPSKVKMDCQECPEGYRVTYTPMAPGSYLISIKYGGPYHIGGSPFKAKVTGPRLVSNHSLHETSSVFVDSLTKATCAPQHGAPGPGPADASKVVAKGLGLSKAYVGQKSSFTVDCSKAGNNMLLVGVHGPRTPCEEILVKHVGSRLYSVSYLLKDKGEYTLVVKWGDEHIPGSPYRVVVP

Structure (SMILES): O=C1CC[C@@]2(O)[C@H]3Cc4ccc(O)c5c4[C@@]2(CCN3CC2CC2)[C@H]1O5 [naltrexone]
- pKd [1]: 11.40
- effect in chronic pain model [2]: no effect
